Like-named read-outs stand apart in the source and are kept apart here. Marks after values point to notes of the source that are not given here.
Columns and labels:
SGLT2 [1] = target: T1, SGLT2 (Homo sapiens, UniProt P31639); assay: 24-h urine glucose excretion, healthy subjects; format: in vivo; conditions: for Filtered glucose excreted in urine / Urinary glucose excretion: 24-h, healthy subjects, mean (SD)
T1 construct: from tissue; host or cells: kidney (proximal tubule) of living human subjects: healthy volunteers and T2DM patients
T1 sequence (P31639 1-672): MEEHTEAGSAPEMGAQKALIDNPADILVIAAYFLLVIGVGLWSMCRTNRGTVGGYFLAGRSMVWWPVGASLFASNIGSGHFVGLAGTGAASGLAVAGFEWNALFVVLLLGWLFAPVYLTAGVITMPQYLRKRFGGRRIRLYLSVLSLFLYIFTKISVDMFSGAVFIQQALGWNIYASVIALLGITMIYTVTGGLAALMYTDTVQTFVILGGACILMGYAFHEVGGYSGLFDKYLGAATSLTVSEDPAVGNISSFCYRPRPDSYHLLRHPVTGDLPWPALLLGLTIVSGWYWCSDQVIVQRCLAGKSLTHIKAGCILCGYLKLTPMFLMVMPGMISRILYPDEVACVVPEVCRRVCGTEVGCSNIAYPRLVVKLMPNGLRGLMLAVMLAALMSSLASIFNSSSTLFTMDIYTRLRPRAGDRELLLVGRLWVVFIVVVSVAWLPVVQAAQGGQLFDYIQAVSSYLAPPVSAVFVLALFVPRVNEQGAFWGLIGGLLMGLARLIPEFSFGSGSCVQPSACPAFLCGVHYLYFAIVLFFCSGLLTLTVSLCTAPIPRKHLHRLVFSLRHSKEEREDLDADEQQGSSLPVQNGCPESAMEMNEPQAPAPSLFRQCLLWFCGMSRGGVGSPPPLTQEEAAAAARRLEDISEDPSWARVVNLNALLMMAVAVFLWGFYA
Description: (§1) Urine samples were collected at pre-dose, and over a series of intervals (0–2, 2–4, 4–6, 6–8, 8–12 and 12–24 h post-dose) for the analysis of creatinine, glucose and electrolytes (Na, K and Cl). All fluid intake was recorded, as well as urine volume, over the 24 hours before and after dosing in each treatment period. Urine was tested for protein on the first morning void of day -1 and 24 h after dosing.
(§2) The percentage of filtered glucose excreted in the urine for each individual time period was calculated as the amount of glucose excreted during that time period divided by (CLCR × PG × time interval length), where CLCR is the creatinine clearance for the time interval, PG is the plasma glucose concentration closest to the midpoint of the time interval, and the time interval is the period (min) of urine collection (CLCR × PG represents the glucose filtered load). For the 24-h period, the percentage of filtered glucose excreted was calculated as the amount of glucose excreted over 24 h divided by the sum over the individual time intervals of (CLCR × PG × time interval length).

SGLT2 [2] = target: T1, SGLT2; assay: 24-h urine glucose excretion, T2DM subjects; format: in vivo; conditions: mean (SD)
Description: as §1, §2

[3] = mice; cited from earlier work
[4] = Plasma pharmacokinetics, healthy subjects; format: in vivo, human; conditions: human; for Cmax: read-out: Cmax; for AUC(0-inf): read-out: AUC(0–∞)
Description: Ten healthy subjects were evaluated in 5 study sessions, each separated by approximately 2 weeks. At each study session, subjects received either an oral dose of remogliflozin etabonate or placebo after an overnight fast. Remogliflozin etabonate doses were 20 mg, 50 mg, 150 mg, 500 mg and 1000 mg. Over the course of participation in the study, each subject received 4 of the 5 active remogliflozin etabonate doses and 1 dose of placebo (4:1 active to placebo ratio per treatment period). The available safety and PK results from each dosing period were evaluated before proceeding to the next dose level. On each dosing day, a series of 2.0 mL blood samples were collected at pre-dose and 10, 20, 30 and 45 min, and 1, 1.25, 1.5, 2, 2.5, 3, 4, 6, 8, 12, 16, and 24 h post-dose for the determination of remogliflozin etabonate, remogliflozin and GSK279782 in plasma by using high-performance liquid chromatography with tandem mass spectrometry (MS/MS) as described. Non-compartmental PK analysis of plasma concentration–time data was performed using WinNonlin Version 4.1 (Pharsight Corporation, Mountainview, CA, USA). The Cmax and Tmax were obtained directly from the data. Areas under the plasma concentration–time curves from time zero to the last quantifiable time point (AUC[0–last]) and extrapolated to infinity (AUC[0–∞]) were calculated using the log-linear trapezoidal method. The terminal plasma elimination rate-constant (λz) was estimated from log-linear regression analysis of the terminal phase of the plasma concentration–time curve, and the T½ was calculated as T½ = ln2/λz. Ratios of AUC(0–∞) remogliflozin to AUC(0–last) remogliflozin etabonate were calculated including molecular weight corrections. Safety and pharmacodynamic data were summarized using descriptive statistics. This was a small exploratory study and no formal hypothesis-testing was conducted. Dose proportionality with respect to Cmax, and AUC was assessed using the power model y = α dose^β, where y = Cmax or AUC, and α denotes a random subject effect. The exponent β in the power model will be estimated by regressing the loge-transformed PK parameters on loge dose, i.e. ln(PK parameter) = ln(α) + β * ln(dose). Dose proportionality implied that β = 1 and was assessed by estimating β and its corresponding 90% confidence interval. The power model was fitted by restricted maximum likelihood using SAS Proc Mixed.

[5] = plasma prodrug, healthy subjects, 50 mg oral dose, geometric mean (CV%)
[6] = plasma prodrug, healthy subjects, 150 mg oral dose, geometric mean (CV%)
[7] = plasma prodrug, healthy subjects, 500 mg oral dose, geometric mean (CV%)
[8] = plasma prodrug, healthy subjects, 1000 mg oral dose, geometric mean (CV%)

Filtered glucose excreted in urine (SGLT2 [1]; 20 mg single dose): 9.0 (2.2) %
Urinary glucose excretion (SGLT2 [1]; 20 mg single dose): 67.1 (17.9) mmol
Filtered glucose excreted in urine (SGLT2 [1]; 50 mg single dose, n = 7): 12.7 (3.7)^b %
Urinary glucose excretion (SGLT2 [1]; 50 mg single dose, n = 7): 96.7 (17.1)^b mmol
Filtered glucose excreted in urine (SGLT2 [1]; 150 mg single dose, n = 7): 25.5 (7.8)^b %
Urinary glucose excretion (SGLT2 [1]; 150 mg single dose, n = 7): 168 (49.4)^b mmol
Filtered glucose excreted in urine (SGLT2 [1]; 500 mg single dose): 34.2 (5.0) %
Urinary glucose excretion (SGLT2 [1]; 500 mg single dose): 223 (49.5) mmol
Filtered glucose excreted in urine (SGLT2 [1]; 1000 mg single dose): 26.4 (11.7) %
Urinary glucose excretion (SGLT2 [1]; 1000 mg single dose): 304 (137) mmol
Total amount of glucose excreted in urine from 0–24 h, dose dependence (SGLT2 [1]; both populations, less than proportional to dose): increased in a dose-dependent manner
Urinary glucose excretion (SGLT2 [2]; 50 mg single dose): 384 (210) mmol
Filtered glucose excreted in urine (SGLT2 [2]; 50 mg single dose, n = 5): 15.9 (5.9)^c %
Filtered glucose excreted in urine (SGLT2 [2]; 500 mg single dose): 21.6 (9.1) %
Urinary glucose excretion (SGLT2 [2]; 500 mg single dose): 642 (256) mmol
half-life ([4]; plasma, oral, both populations, independent of dose (abstract), read-out: mean plasma T½): ~25 min
Tmax ([4]; plasma, oral, healthy subjects, 20-1000 mg, read-out: median Tmax estimates, range across doses): 31.2 to 75 min
half-life ([4]; plasma, oral, healthy subjects, 20-1000 mg, read-out: median T½ estimates, range across doses): 15.6 to 42.6 min
half-life ([4]; plasma, po, 50 mg, plasma prodrug, healthy subjects, 50 mg oral dose, geometric mean (CV%), n = 6, read-out: T½ (converted)): 21.2 min
half-life ([4]; plasma, po, 150 mg, plasma prodrug, healthy subjects, 150 mg oral dose, geometric mean (CV%), n = 6, read-out: T½ (converted)): 15.4 min
half-life ([4]; plasma, po, 500 mg, plasma prodrug, healthy subjects, 500 mg oral dose, geometric mean (CV% 27), n = 4, read-out: T½ (converted)): 15.8 min
half-life ([4]; plasma, po, 1000 mg, plasma prodrug, healthy subjects, 1000 mg oral dose, geometric mean (CV% 56), n = 7, read-out: T½ (converted)): 42.4 min
AUC(0-t) ([4]; plasma prodrug, healthy subjects, 20 mg oral dose, geometric mean (CV%), n = 5): 1.61 ng·h/mL
Cmax ([4]; plasma prodrug, healthy subjects, 20 mg oral dose, geometric mean (CV%)): 1.89 ng/mL
Tmax ([4]; plasma prodrug, healthy subjects, 20 mg oral dose, median, read-out: Tmax): 37.5 min
AUC(0-t) [4, 5]: 3.56 ng·h/mL
AUC(0-inf) ([4]; plasma prodrug, healthy subjects, 50 mg oral dose, geometric mean (CV%), n = 6): 3.7 ng·h/mL
Cmax [4, 5]: 4.98 ng/mL
Tmax ([4]; plasma prodrug, healthy subjects, 50 mg oral dose, median, read-out: Tmax): 37.5 min
AUC(0-t) [4, 6]: 9.51 ng·h/mL
AUC(0-inf) ([4]; plasma prodrug, healthy subjects, 150 mg oral dose, geometric mean (CV%), n = 6): 9.77 ng·h/mL
Cmax [4, 6]: 17.6 ng/mL
Tmax ([4]; plasma prodrug, healthy subjects, 150 mg oral dose, median, read-out: Tmax): 30.9 min
AUC(0-t) [4, 7]: 35.4 ng·h/mL
AUC(0-inf) ([4]; plasma prodrug, healthy subjects, 500 mg oral dose, geometric mean (CV%), n = 4): 36.8 ng·h/mL
Cmax [4, 7]: 41.6 ng/mL
Tmax ([4]; plasma prodrug, healthy subjects, 500 mg oral dose, median, read-out: Tmax): 75 min
AUC(0-t) [4, 8]: 107 ng·h/mL
AUC(0-inf) ([4]; plasma prodrug, healthy subjects, 1000 mg oral dose, geometric mean (CV%), n = 7): 126 ng·h/mL
Cmax [4, 8]: 144 ng/mL
Tmax ([4]; plasma prodrug, healthy subjects, 1000 mg oral dose, median, read-out: Tmax): 37.5 min
SMILES: CCOC(=O)OC[C@H]1O[C@@H](Oc2nn(C(C)C)c(C)c2Cc2ccc(OC(C)C)cc2)[C@H](O)[C@@H](O)[C@@H]1O [Remogliflozin etabonate, remogliflozin etabonate]
Urinary glucose excretion [3]: concentration-dependent increase

— article PMC3700763, “First human dose-escalation study with remogliflozin etabonate, a selective inhibitor of the sodium-glucose transporter 2 (SGLT2), in healthy subjects and in subjects with type 2 diabetes mellitus” (BMC Pharmacology & Toxicology, 2013)
